Data taken from patent US9994862B2, “Rice resistant to HPPD and ACCase inhibiting herbicides” (priority 2011, dated 2018).
Entries after “also recorded” stand apart in the source; their conditions may differ.

Tested on: mutant line ML0831266-03093
Test: Mesotrione tolerance trials / herbicide bioassay
Type: in vivo, rice
Method: After the initial screening of the “mutation population,” the lines with no damage were selected and tested in additional experiments using different rates of the herbicide. In particular, a rate response experiment was conducted in which two different rates of mesotrione were applied pre-emergence, plus an additional foliar application was also applied. […] Progeny of this designated ML0831266-03093 are maintained as a new line carrying resistance to mesotrione herbicide. Seeds are deposited under ATCC PTA-13620. The line (ML0831266-03093) is a source of resistance that is backcrossed into proprietary rice lines or used directly in breeding to develop new proprietary rice lines. The developed lines are a source of herbicide resistance for use in development of new hybrids that offer an alternative mode of action to control weeds in rice. Affording this opportunity to growers is of great value both in providing high yields and in extending the useful life of available weed control technologies. These herbicide resistant traits can be tracked through the simple application of herbicides to growing plants.
Selection of material inheriting mesotrione tolerance is accomplished by a simple herbicide bioassay. A high rate of mesotrione (at least 420 gm ai/ha) is applied allowing differentiation of heterozygous individuals from homozygous individuals and the tolerance level of the […] line from the inherent tolerance level in the background of some types of rice. In one example a rate of 105 gm ai/ha is applied followed three weeks later by a second application of 630 gm ai/ha. In another example a rate of 420 gm ai/ha is applied in a single application. Yet another example entails applying the herbicide at a rate of 630 gm ai/ha. Herbicide applications are done at the three to four leaf stage of seedling growth. The ideal situation is to have also planted near or within the plants to be selected a set of plants from the original mutant mesotrione tolerant donor line ML0831266-03093, (FIG. 18A) a row of plants of the wild-type of the […] line, P1003 (FIG. 18B), and a row of the line involved as the other parent in the cross (FIG. 18C). These control lines allow easy differentiation for inheritance of the tolerance provided by the ML0831266-03093 mutant line through comparison of the response in the plants to be selected with the control lines. Only plants that live and are relatively healthy will have inherited and be homozygous for the tolerance level provided by the ML0831266-03093 mutant line (FIG. 18A).
The mutant line is planted in rows or alternatively whole plots are planted and rows of the unmutated line (P1003) and other types of rice or whole plots are planted. Mesotrione is applied pre-emergence or alternatively it is applied post-emergence at the three to four leaf stage of the rice plants. Various rates of mesotrione are applied pre-emergence, pre-emergence followed by post-emergent, or post-emergent with a single or sequential application. Post-emergent applications are applied at the 3-4 leaf stage of the rice.
Seedlings of size 3 to 4 leaves are sprayed with mesotrione herbicide. In one set of 89 plants mesotrione is first applied at 105 gm ai/ha killing 23 plants. Both the mutant line control ML0831266-03093 and the unmutated line P1003 survived the herbicide application while the unmutated line R0146 was killed. […]

With `CS(=O)(=O)c1ccc(C(=O)C2C(=O)CCCC2=O)c([N+](=O)[O-])c1` [mesotrione] the tolerance to mesotrione (420 gm ai/ha) was “tolerant”, the “tolerance to mesotrione in the presence of common rice weeds” value (applied rates of mesotrione, FIG. 6) was “completely tolerant” and the survival after mesotrione (higher rates) was “survives”. For the same compound, the survival after mesotrione (low rate 105 gm ai/ha) was “survived” and the “response of the rice to mesotrione” value (one application at 105 gai/ha followed by a second application of 630 gai/ha) was “tolerant; also recorded: little damage”.
